Test: gradient 5% acetonitrile 3 min, to 50% in 2 min, to 85% in 15 min, held 3 min, 100 µL/min
Conditions: column: Zorbax Extend-C18 2.1 x 50 mm; eluents: water / acetonitrile, 0.1% formic acid
How it was run: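 Data were gathered over 3 months by HPLC coupled to a quadrupole time-of-flight mass spectrometer, operated in positive and negative ionization mode. Mixtures of ~100 pure standards ran on a Zorbax Extend-C18 column (2.1 × 50 mm, 1.8 μm) at 100 μL/min, with water and acetonitrile each containing 0.1% formic acid and dead and dwell volumes of 40 μL and 900 μL. Retention time was read from adduct peaks picked by computer and checked manually.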

RP-LC retention time [s] | Structure (SMILES)
833 | CN(C)c1cnc(-n2cc(NC(=O)c3ccc(C(F)(F)F)cc3)cn2)nc1
652 | O=C(CCc1c(-c2ccccc2)nc2ccccn12)NCc1ccccc1F
662 | COc1ccc(CN(Cc2ccccc2)Cc2cc(=O)n3ccc(C)cc3n2)cc1OC
752 | CSc1ccc(CNC(=O)CC2c3ncccc3C(=O)N2c2ccccc2)cc1 (configuration not stated)
861 | CCC(=O)Nc1ccc(C2(C(=O)N3CCN(c4ccccc4)CC3)CCC2)cc1
600 | Nc1nc(Nc2ccccc2F)nc2ccccc12
1100 | CCNS(=O)(=O)c1cccnc1Nc1ccc(Cl)c(C)c1
735 | CCc1noc(-c2cnc3nc(C)ccc3c2NCc2cc(OC)ccc2OC)n1
696 | CN1CC(CNS(=O)(=O)c2ccccc2C(F)(F)F)C2(CCCCC2)C1 (configuration not stated)
746 | O=C(Cc1ccc(F)cc1)NCCCn1cccc1
709 | O=C(c1cccc(Cl)c1)N1C[C@@H]2C[C@H]1C[C@@H]2NS(=O)(=O)c1cccnc1
698 | CNC(=O)[C@@H]1CN(C(=O)c2ccc(Cl)s2)C[C@H]1c1nc(COC)no1
715 | COc1ccc(OC)c(NC(=O)Cn2nc3n(c2=O)CCCCC3)c1
964 | O=C(Cc1c[nH]c2ccccc12)N1CCC(Oc2ccc(-c3noc(C4CC4)n3)cc2)C1 (configuration not stated)
569 | CN(C)CCNC(=O)c1ccc(CS(=O)c2ccc(F)cc2)o1 (configuration not stated)
615 | O=C(Cn1c(-c2cnccn2)nc2ccccc21)N1CCN(C(=O)c2ccco2)CC1
603 | COC(=O)c1ccccc1NC(=O)CSc1nc(C)cc(N2CCOCC2)n1
758 | COc1ccc(-c2cc3n(n2)CCCN(C(=O)c2ccco2)C3)cc1
817 | COc1cccc(-n2ccc(=O)c(-c3nc(-c4ccc(OC)c(OC)c4)no3)n2)c1
592 | COc1ccc(-n2c(CSc3ncccn3)nnc2SCC(=O)NO)cc1
648 | Cc1cccc(C2CN(C)CCc3c2cc(O)c(O)c3Cl)c1 (configuration not stated)
931 | CCCCS(=O)(=O)c1cc2c(cc1NC(=O)Cc1ccc(C)cc1)n(C)c(=O)n2C
718 | COC(=O)c1ncn2c1C(=O)N(c1cc(C)ccc1C)C(C)(C(=O)NC1CCCC1)C2 (configuration not stated)

RP-LC retention time [s] | Structure (SMILES)
795 | Cc1cc(NC(=O)c2csc(-c3ccc(N4CCCC4)nc3)n2)ccc1F
884 | CCOc1ccc(C(=O)N2CCN(c3ccc(-c4nc(C)cs4)cn3)CC2)cc1
1120 | COc1cc(NS(=O)(=O)c2c(C)nn(-c3ccc(-c4ccc(C)cc4)nn3)c2C)cc(OC)c1
945 | COc1ccc(NS(=O)(=O)c2ccc(-c3c(C)noc3C)cc2)cc1Cl
754 | Cc1cc(Cl)ccc1NC(=O)N1CC(Cc2nc(-c3cnccn3)no2)C1
564 | O=C(O)Cn1c(-c2cccnc2)nc2ccccc21
953 | CCCNC(=O)c1cc2c(-c3cccs3)nn(-c3ccccc3)c2n1C
1180 | Cc1c(-c2ccnc(N3CCCCC3)n2)cnc2nc(-c3ccccc3)nn12
961 | Cc1ccc(N2CC(c3noc(-c4nccc5ccccc45)n3)CC2=O)cc1 (configuration not stated)
822 | CCC(C)Nc1nc(-c2ccc(Cl)cc2)nc2ccccc12 (configuration not stated)
986 | CN(C)S(=O)(=O)N(CC(=O)Nc1ccc(F)c(Cl)c1)c1ccccc1
652 | CCOc1ccc(NC(=O)N2CCC(C(=O)NCc3csc(C)n3)CC2)cc1
648 | NC(=O)Cc1csc(SCC(=O)c2ccc3c(c2)OCO3)n1
763 | CCSc1nnc(-c2nn(C)c3c2CN(C(=O)c2ccc(F)c(F)c2)CC3)n1C
830 | CSc1ncccc1C(=O)NCc1nn(C(C)C)c2ccccc12
657 | Cc1cc(C)cc(NC(=O)C2CCN(c3cncnc3N3CCOCC3)CC2)c1
1040 | Cc1ccc(C(=O)Nc2nccnc2C(=O)NC2CCCC2)cc1
566 | O=C(CCc1nnc2ccc(N3CCOCC3)nn12)N1CCN(c2ccccn2)CC1
681 | Cc1c(NC(=O)c2ccccc2-c2ccccc2C(=O)O)c(=O)n(-c2ccccc2)n1C
789 | COc1ccccc1CNC(=O)c1ccc2c(c1)nc1n2CCN(Cc2ccccc2)C1=O
623 | COCC1CN(S(=O)(=O)Cc2cccc(F)c2)CC12CCNCC2 (configuration not stated)
612 | CCOc1cccc(C2CC(c3ccccc3)=NC3(CCN(C(C)C)CC3)N2)c1O (configuration not stated)
1360 | CC(C)Cc1ccc(S(=O)(=O)N2CCCC2c2nc(-c3ccc(F)cc3)no2)cc1 (configuration not stated)

RP-LC retention time [s] | Structure (SMILES)
1330 | CCCN(CCC)S(=O)(=O)c1ccc(C(=O)Nc2nc(-c3ccc(OC)cc3)c(C)s2)cc1
707 | COc1cccc(C(=O)CC2(O)C(=O)Nc3ccc(F)cc32)c1 (configuration not stated)
743 | CCc1noc(NC(C)=O)c1-c1ccc(C)c(S(=O)(=O)N2CCOCC2)c1
804 | Cc1ccc(F)cc1NC(=O)Cn1nc2nc(N3CCCC(C)C3)ccn2c1=O (configuration not stated)
776 | CCCCC(=O)Nc1ccc2nc(N3CCN(c4cccc(C)c4C)CC3)cc(C(=O)O)c2c1
622 | COc1ccc(Cl)cc1S(=O)(=O)N1CCCC(C(=O)NCc2ccncc2)C1 (configuration not stated)
872 | O=c1c2ccccc2ncn1Cc1noc(Cc2ccc(Cl)cc2)n1
715 | O=C(NCc1cc(F)ccc1F)C1CCCN(c2cnc3nccnc3c2)C1 (configuration not stated)
769 | Cc1cc(-c2nnc(C3CC3)o2)c(C)n1CC(=O)NCc1ccccc1Cl
975 | Cc1oc2ccn(Cc3ccc(F)cc3)c(=O)c2c1C(=O)NCc1ccco1
996 | COc1cccc2sc(N3CCN(c4ccccc4)CC3)nc12
722 | CCOc1ccc(C(C)C)cc1S(=O)(=O)Nc1cccnc1
818 | CN1C(=O)c2cccnc2Sc2cc(NC(=O)CCc3ccccc3)ccc21
659 | CCc1ccccc1NC(=O)Cn1c(N2CCCC2)nc(C)cc1=O
772 | O=C(c1ccc2c(c1)OCO2)N1CCN(c2cc(-c3ccc(F)cc3)[nH]n2)CC1
981 | CN1C(=O)C2CCCCN2c2ccc(C(=O)NCCN3CCCC3)cc21 (configuration not stated)
839 | Cc1cccc(NC(=O)NCCc2cn(CC(C)C)c3ncccc23)c1C
686 | Nc1nc(N)c2cc(Sc3cccc(C(F)(F)F)c3)ccc2n1
824 | CCOC(=O)c1ccc(NC(=O)NCC(c2cccnc2)c2cn(C)c3ccccc23)cc1 (configuration not stated)
615 | Cc1ccc(CNC(=O)C2(C)CCN(S(=O)(=O)c3ccc(Cl)cc3)CC2)cc1
731 | Cc1ccc2nc(C(=O)NCc3ccc(OC(C)C)cc3)cn2c1

Source: the METLIN SMRT retention time set (Domingo-Almenara et al. 2019)
